Data reported in ChEMBL document CHEMBL1201862, “PubChem BioAssay data set” (2004).
Activity calls are given as the source filed them.

Tests used:
[1] = tested on: P388/ADR; assay: cells; assay type: functional; conditions: Mus musculus
[2] = tested on: SN12K1; assay: cells; assay type: functional; conditions: Homo sapiens
[3] = tested on: P388; assay: cells; assay type: functional; conditions: Mus musculus
[4] = viability of PTEN-deleted HCT116 cells – cell-based, HCT116 PTEN knockout, dose response (AID 1047); assay type: functional;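 also: HCT116 colon tumor cells with PTEN knocked out; cells exposed to compound for 60 hours before readout; potency for loss of cell viability measured by luminescence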
[5] = viability of HCT116 lacking mutant beta-catenin – cell-based, human colon tumor, dose response (AID 1045); assay type: functional;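 also: HCT116 colon tumor cells with beta catenin knocked out; cells exposed to compound for 60 hours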
[6] = target: T1, DNA repair protein RAD52 homolog (Homo sapiens, UniProt P43351); assay type: functional, biochemical
T1 sequence (P43351 whole entry): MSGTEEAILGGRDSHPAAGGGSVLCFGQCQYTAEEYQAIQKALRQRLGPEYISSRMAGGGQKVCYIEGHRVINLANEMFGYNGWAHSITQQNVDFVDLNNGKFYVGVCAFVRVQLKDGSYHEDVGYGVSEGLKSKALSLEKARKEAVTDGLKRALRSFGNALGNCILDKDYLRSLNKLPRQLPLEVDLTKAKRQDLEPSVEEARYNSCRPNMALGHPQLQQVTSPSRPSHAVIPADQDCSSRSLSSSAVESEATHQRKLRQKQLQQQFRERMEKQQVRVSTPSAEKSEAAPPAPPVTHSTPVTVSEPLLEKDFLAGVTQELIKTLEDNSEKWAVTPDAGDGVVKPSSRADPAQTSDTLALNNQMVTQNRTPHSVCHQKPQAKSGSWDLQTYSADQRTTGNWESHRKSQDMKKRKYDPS

[7] = target: FAD-linked sulfhydryl oxidase ALR (Homo sapiens, UniProt P55789); assay: ALR-catalysed DTT oxidation blockers – biochemical, H2O2 detection, luminescence, cherry-pick, dose response (AID 493248)
Sequence of FAD-linked sulfhydryl oxidase ALR (P55789 whole entry): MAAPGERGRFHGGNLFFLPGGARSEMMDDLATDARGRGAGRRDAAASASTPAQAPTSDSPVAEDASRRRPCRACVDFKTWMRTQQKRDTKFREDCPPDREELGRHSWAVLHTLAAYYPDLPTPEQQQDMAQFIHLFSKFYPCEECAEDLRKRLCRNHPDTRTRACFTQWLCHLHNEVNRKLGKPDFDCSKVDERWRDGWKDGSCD

[8] = target: T2, Polyadenylate-binding protein 1 (Homo sapiens, UniProt P11940); assay: MLLE binding blockers, Cy5 peptide tracer – biochemical, fluorescence polarization, Cy5-PAM2 peptide, secondary, miRNA deadenylation inhibitor project, dose response (AID 602260); assay type: functional; conditions: read-out: IC50_Mean
T2 sequence (P11940 whole entry, the tested form may be a part): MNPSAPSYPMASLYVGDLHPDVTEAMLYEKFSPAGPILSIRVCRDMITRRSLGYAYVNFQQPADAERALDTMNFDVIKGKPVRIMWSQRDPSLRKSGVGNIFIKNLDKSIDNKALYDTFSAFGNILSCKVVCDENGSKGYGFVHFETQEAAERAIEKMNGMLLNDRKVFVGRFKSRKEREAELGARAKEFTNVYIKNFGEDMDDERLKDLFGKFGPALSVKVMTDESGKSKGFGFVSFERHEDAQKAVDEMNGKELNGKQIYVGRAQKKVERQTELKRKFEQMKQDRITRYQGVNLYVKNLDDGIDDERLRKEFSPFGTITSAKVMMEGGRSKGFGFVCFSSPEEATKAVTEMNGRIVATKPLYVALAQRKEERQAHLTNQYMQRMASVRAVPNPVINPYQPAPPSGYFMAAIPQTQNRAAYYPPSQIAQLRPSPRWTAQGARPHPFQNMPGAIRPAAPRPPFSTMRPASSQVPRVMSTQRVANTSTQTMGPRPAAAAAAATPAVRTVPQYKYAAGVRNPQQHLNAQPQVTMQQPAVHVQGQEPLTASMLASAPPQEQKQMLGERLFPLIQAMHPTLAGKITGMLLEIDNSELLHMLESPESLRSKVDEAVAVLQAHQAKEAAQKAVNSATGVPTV

[9] = target: T2, Polyadenylate-binding protein 1; assay: MLLE domain peptide-binding blockers, IC50 – biochemical, fluorescence polarization, FITC-PAM2 peptide, dose response (AID 602259); assay type: functional; conditions: read-out: IC50_Mean
[10] = target: DNA dC->dU-editing enzyme APOBEC-3A (Homo sapiens, UniProt P31941); assay: A3A deaminase inhibition for selectivity – biochemical, dose response (AID 504722); assay type: functional
Sequence of DNA dC->dU-editing enzyme APOBEC-3A (P31941 whole entry): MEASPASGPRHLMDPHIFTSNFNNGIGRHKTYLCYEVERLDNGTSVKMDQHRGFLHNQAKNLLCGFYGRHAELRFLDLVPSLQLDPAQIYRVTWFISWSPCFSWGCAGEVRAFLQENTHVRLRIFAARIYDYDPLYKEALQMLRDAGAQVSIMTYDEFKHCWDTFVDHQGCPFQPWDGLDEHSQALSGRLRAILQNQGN

[11] = target: DNA dC->dU-editing enzyme APOBEC-3G (Homo sapiens, UniProt Q9HC16); assay: Dose Response confirmation of small molecule APOBEC3G DNA Deaminase Inhibitors via a fluorescence-based single-stranded DNA deaminase assay. [Related pubchem assays (depositor defined):AID493012, AID493028]; assay type: functional
Sequence of DNA dC->dU-editing enzyme APOBEC-3G (Q9HC16 whole entry): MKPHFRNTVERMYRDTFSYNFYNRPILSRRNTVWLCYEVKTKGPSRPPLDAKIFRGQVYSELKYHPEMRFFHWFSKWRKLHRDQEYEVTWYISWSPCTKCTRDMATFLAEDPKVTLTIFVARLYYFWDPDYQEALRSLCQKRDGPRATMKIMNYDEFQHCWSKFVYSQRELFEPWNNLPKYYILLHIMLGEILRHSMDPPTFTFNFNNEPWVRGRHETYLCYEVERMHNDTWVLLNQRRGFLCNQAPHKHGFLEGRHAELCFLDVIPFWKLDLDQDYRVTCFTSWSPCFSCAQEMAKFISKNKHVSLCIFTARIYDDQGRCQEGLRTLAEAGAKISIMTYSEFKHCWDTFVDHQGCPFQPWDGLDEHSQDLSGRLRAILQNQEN

[12] = THP-1 cell cytotoxicity, dose response, cytotoxicity control for non-replicating M. tuberculosis project (AID 489025); assay type: functional
[13] = target: T3, Ubiquitin-conjugating enzyme E2 N (Homo sapiens, UniProt P61088); assay type: functional;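 also: Dose-response confirmation in a TR-FRET assay detecting UBC13-driven polyubiquitin chain formation, inhibition measured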
T3 sequence (P61088 whole entry): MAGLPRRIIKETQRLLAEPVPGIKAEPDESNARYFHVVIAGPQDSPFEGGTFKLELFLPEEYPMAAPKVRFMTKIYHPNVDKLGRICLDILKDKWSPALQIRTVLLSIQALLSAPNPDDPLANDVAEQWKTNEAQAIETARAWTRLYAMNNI

[14] = Vero E6 cell cytotoxicity, dose response, cytotoxicity control for non-replicating M. tuberculosis project, secondary assay (AID 492998); assay type: functional, VeroE6; conditions: Vero C1008
[15] = cells; assay type: functional
[16] = target: T4, Heat shock factor protein 1 (Mus musculus, UniProt P38532); assay: decrease of HSF1-responsive luciferase luminescence – cell-based, NIH3T3, dose retest, confirmation (AID 2382); assay type: functional;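 also: NIH3T3 fibroblasts with HSF1-driven luciferase reporter stressed by proteasome inhibitor MG132; luminescence from HSF1-driven luciferase expression after 8 hours of MG132 stress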
T4 sequence (P38532 whole entry): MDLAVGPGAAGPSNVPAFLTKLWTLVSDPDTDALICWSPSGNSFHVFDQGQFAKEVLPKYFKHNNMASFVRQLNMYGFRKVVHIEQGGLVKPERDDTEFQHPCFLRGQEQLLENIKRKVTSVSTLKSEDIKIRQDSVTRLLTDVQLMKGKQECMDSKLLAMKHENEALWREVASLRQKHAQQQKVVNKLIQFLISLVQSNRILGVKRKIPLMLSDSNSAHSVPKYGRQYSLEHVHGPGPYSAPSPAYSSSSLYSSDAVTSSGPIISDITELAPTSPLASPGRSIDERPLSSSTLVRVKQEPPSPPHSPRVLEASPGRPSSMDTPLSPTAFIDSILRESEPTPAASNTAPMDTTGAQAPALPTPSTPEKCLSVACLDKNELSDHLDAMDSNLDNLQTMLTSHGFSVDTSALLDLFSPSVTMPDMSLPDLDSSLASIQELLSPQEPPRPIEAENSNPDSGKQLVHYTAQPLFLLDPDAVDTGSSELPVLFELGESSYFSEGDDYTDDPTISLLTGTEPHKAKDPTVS

[17] = blockers of bursicon-stimulated LGR2 cAMP reporter – cell-based, HEK293, CRE-luciferase reporter, cherry pick, set 2, dose response (AID 743343); assay type: functional;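 also: transfected cells were stimulated with diluted bursicon conditioned medium after compound addition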
[18] = blockade of melanocortin 4 receptor signaling – cell-based, plate reader, cherry pick, counter-screen for LGR2 antagonist project, dose response (AID 743444); assay type: functional;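 also: transfected HEK 293 cells stimulated with alpha-MSH peptide; potency of inhibitors of the alpha-MSH evoked signal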
[19] = Luminescence Cell-Based Dose Confirmation HTS to Identify Activators of 5'UTR Stem-Loop Driven Alpha-Synuclein mRNA Translation in H4 Neuroglioblastoma Cells. [Related pubchem assays: 1829 (Project Summary), 1814 (Primary HTS)]; assay type: functional
[20] = Luminescence Cell-Based Dose Response HTS to Identify Activators of Luciferase Translation or Activity in H4 […] Cells. [Related pubchem assays: 1829 (Project Summary), 1814 (Primary HTS)]; assay type: functional
[21] = tested on: H4; assay: Luminescence Cell-Based Dose Response HTS to Identify Activators of 5'UTR Stem-Loop Driven Prion Protein mRNA Translation in H4 Neuroglioblastoma Cells. [Related pubchem assays: 1829 (Project Summary), 1814 (Primary HTS)]; assay type: functional; conditions: Homo sapiens
[22] = microbe, parasite or virus in culture; assay type: functional; conditions: Mycobacterium tuberculosis
[23] = target: Large T antigen (Simian virus 40, UniProt P03070); assay type: functional, Betapolyomavirus macacae;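 also: Confirmatory-stage PubChem screen for compounds that inhibit SV40 T antigen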
Sequence of Large T antigen (P03070 whole entry): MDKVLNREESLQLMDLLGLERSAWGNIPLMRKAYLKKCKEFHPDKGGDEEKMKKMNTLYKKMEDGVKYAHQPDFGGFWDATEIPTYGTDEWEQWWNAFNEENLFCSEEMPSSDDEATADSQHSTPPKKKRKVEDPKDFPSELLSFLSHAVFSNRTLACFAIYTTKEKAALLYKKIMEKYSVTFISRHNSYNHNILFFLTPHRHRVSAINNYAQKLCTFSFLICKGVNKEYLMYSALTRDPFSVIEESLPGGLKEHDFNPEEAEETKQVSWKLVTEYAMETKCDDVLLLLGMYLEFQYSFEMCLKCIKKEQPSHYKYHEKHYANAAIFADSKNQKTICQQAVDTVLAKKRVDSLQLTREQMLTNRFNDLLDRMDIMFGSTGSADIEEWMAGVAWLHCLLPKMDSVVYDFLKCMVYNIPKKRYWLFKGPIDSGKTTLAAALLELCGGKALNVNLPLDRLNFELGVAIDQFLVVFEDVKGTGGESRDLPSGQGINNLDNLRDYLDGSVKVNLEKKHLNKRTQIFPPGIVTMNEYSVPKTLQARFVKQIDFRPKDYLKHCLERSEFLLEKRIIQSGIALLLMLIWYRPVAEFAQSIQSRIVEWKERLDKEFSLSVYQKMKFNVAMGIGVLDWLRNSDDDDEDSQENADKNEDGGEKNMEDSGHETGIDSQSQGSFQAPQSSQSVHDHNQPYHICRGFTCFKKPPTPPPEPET

[24] = target: T5, Corticotropin-releasing factor receptor 2/Corticotropin-releasing factor-binding protein (Homo sapiens, UniProt P24387+Q13324); assay: Dose Response confirmation of uHTS hits for small molecule antagonists of the CRF-binding protein and CRF-R2 receptor complex.; assay type: functional; conditions: read-out: IC50_Mean
T5 sequence (Q13324 whole entry): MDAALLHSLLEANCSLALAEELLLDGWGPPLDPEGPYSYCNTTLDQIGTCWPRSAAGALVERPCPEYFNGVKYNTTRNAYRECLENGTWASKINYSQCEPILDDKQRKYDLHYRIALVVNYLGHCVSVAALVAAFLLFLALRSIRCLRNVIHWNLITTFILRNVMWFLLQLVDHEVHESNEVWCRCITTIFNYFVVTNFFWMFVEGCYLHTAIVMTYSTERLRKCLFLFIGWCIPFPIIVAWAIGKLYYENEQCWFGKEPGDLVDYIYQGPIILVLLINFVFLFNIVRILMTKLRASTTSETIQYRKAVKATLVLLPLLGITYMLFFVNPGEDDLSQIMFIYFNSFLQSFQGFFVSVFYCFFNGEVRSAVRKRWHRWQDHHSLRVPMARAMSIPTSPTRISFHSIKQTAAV
T5 sequence (P24387 whole entry): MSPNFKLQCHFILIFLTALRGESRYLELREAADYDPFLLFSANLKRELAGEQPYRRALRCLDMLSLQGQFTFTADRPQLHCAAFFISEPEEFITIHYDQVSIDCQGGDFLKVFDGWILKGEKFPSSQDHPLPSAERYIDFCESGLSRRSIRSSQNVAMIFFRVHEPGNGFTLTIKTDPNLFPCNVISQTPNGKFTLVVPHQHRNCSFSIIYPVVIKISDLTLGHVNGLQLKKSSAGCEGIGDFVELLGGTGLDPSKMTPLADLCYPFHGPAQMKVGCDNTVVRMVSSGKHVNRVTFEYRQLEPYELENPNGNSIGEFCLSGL

[25] = target: T5, Corticotropin-releasing factor receptor 2/Corticotropin-releasing factor-binding protein; assay: activators of CRF receptor 2 with binding protein – uHTS hits, confirmation (AID 602473); assay type: functional; conditions: read-out: EC50_Mean
[26] = target: Glyceraldehyde-3-phosphate dehydrogenase (Homo sapiens, UniProt P04406)
Sequence of Glyceraldehyde-3-phosphate dehydrogenase (P04406 whole entry): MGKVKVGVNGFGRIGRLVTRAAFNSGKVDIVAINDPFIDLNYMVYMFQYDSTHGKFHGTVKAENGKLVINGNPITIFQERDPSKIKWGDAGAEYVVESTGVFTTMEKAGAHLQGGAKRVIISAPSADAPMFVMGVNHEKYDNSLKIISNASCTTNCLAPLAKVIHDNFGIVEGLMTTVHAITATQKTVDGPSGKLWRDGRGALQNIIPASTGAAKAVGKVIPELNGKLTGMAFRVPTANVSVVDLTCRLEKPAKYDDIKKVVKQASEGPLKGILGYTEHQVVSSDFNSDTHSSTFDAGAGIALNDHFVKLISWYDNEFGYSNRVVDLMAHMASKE

## O=NN(CCCl)C(=O)NC1CCC(=O)NC1=O (configuration not stated)
[1]
  GI50: 23.4 µM (inactive)
[2]
  GI50: 107 µM (inactive)
[3]
  GI50: 17.8 µM (inactive)

## CN(C)CCN(C)Cc1ccccc1Sc1cccc2ccccc12
[4]
  EC50: 12.8 µM (active)
[5]
  EC50: 10.6 µM (active)
[6]
  AC50: 11.2 µM (active)

## Nc1ccc(-c2nc3cc(N)ccc3s2)cc1
[7]
  AC50: 1.43 µM (active)

## COc1ccc2c(c1)CCN1C2CCN2C(=O)CCC21 (configuration not stated)
[8]
  IC50: > 66 µM (inactive)
[9]
  IC50: > 66 µM (inactive)

## Clc1nnc(N2CCCCC2)c2ccccc12
[7]
  AC50: 17.1 µM (active)

## CC(=O)NCCCc1c[nH]c2ccc(Cl)cc12
[7]
  AC50: 13.5 µM (active)

## CCn1c(CSc2nc3ccccc3[nH]2)n[nH]c1=S
[10]
  IC50: > 100 µM (inactive)
[11]
  IC50: 5.44 µM (active)

## CN(C)CCCNc1nc2sc3c(c2c(=O)n1CCc1ccccc1)CCCCC3
[12]
  CC50: 19.5 µM (active)
[13]
  IC50: > 20 µM (inactive)
[14]
  CC50: 14.4 µM (active)
[15]
  IC50: 23.3 µM (active)

## CC(C)(C)c1ccc(C(=O)NCCOc2ccccc2F)cc1
[16]
  EC50: < 0.16 µM (active)
[17]
  AC50: 5.41 µM (active)
[18]
  AC50: 4.25 µM (active)

## C[C@@H]1[C@@H](Sc2ccccc2)CC(=O)O[C@@H]1c1ccc(-c2ccccc2)cc1
[19]
  EC50: > 120 µM (not active)
[20]
  EC50: > 120 µM (not active)
[21]
  EC50: > 120 µM (not active)
[8]
  IC50: > 66 µM (inactive)
[9]
  IC50: > 66 µM (inactive)

## N#Cc1cc2cc3c(cc2nc1NCCNC(=S)NCCCN1CCOCC1)OCO3
[6]
  AC50: 14.1 µM (active)

## FC(F)(F)c1cccc(NC(S)=Nc2cccc(N=C(S)Nc3cccc(C(F)(F)F)c3)n2)c1
[8]
  IC50: > 66 µM (inactive)
[9]
  IC50: > 66 µM (inactive)

## COC1C(C)OC(OC2CC(C)(O)Cc3cc4c(c(O)c32)C(=O)c2c(O)cc3c(c2C4=O)OC2OC3(C)C(O)C(N(C)C)C2O)C(OC)C1(C)OC (configuration not stated)
[1]
  GI50: 0.5 µM (active)
[2]
  GI50: 0.0168 µM (active)
[3]
  GI50: 0.0228 µM (active)

## CCCCCn1c(=O)c2ccccc2n2c(CCl)nnc12
[22]
  CC50: 11.7 µM (active)
[12]
  CC50: 19.2 µM (active)
[14]
  CC50: > 20 µM (active)
[15]
  IC50: 0.67 µM (active)

## CN(C)c1ccc(NC(=O)COC(=O)Cn2nnc3ccccc32)cc1
[23]
  IC50: 6.63 µM (active)
[24]
  IC50: > 47.1 µM (inactive)
[25]
  EC50: > 53 µM (inactive)

## O=C(c1cc(-c2ccc(Cl)cc2Cl)on1)N1CCCC1
[17]
  AC50: 5.36 µM (active)
[18]
  AC50: 5.47 µM (active)

## COc1cccc(/C=C2\SC(N3CCCC(C)C3)=NC2=O)c1OC (configuration not stated)
[7]
  AC50: 5.2 µM (active)

## COc1ccc(N)cc1NC(=O)CN1CCCC1
[7]
  AC50: 7.58 µM (active)
[6]
  AC50: 9.95 µM (active)

## COc1ccc(N=C(S)NC23CN4CN(CN(C4)C2)C3)c(OC)c1
[6]
  AC50: 16.3 µM (active)

## C[C@H]1CC[C@H](NC(=O)N(CCCl)N=O)CC1
[1]
  GI50: 9.73 µM (inactive)
[2]
  GI50: 26 µM (inactive)
[3]
  GI50: 9.53 µM (inactive)

## Cc1nnc(S)n1/N=C/c1ccc(-c2ccccc2[N+](=O)[O-])o1
[10]
  IC50: > 100 µM (inactive)
[11]
  IC50: 4.2 µM (active)

## COc1cc[n+](C)cc1
[1]
  GI50: > 100 µM (inactive)
[2]
  GI50: > 100 µM (inactive)
[3]
  GI50: > 100 µM (inactive)

## COc1cc(-c2ccc(/N=N/c3c(S(=O)(=O)O)cc4cc(S(=O)(=O)O)cc(N)c4c3O)c(OC)c2)ccc1/N=N/c1c(S(=O)(=O)O)cc2cc(S(=O)(=O)O)cc(N)c2c1O
[2]
  GI50: > 100 µM (inactive)
[3]
  GI50: > 100 µM (inactive)

## COc1cccc(/C=N/c2ccc(N3CCOCC3)cc2)c1O
[23]
  IC50: 4.14 µM (active)

## CCC[S+]([O-])c1nc(COC(=O)NC)c(COC(=O)NC)n1C (configuration not stated)
[1]
  GI50: > 100 µM (inactive)
[2]
  GI50: > 100 µM (inactive)
[3]
  GI50: > 100 µM (inactive)

## O=C(c1cc(-c2ccc(Cl)cc2Cl)n[nH]1)N(CCO)CCO
[26]
  IC50: > 10 µM (inconclusive)

## S=P(N1CC1)(N1CC1)N1CC1 [THIOTEPA]
[1]
  GI50: 7.41 µM (inactive)
[2]
  GI50: > 89.1 µM (inactive)
[3]
  GI50: 6.93 µM (inactive)
